This note sets out measurements from patent EP0778025A1, “Use of 8,9-dehydroestrone for the manufacture of a medicament for the treatment of diseases caused by free radicals” (AMERICAN HOME PRODUCTS CORPORATION, priority 1995, dated 1997).

SMILES strings stand for the structures. Like-named read-outs stand apart in the source and are kept apart here.

Series [1] relates to J774 macrophages. Kind of series: Binding of Cu++-treated 125I-LDL to J774 macrophages (scavenger lipoprotein receptors). Type of series: cell-based. Conditions: Mus musculus. From the text: In the first test procedure, radiolabeled-LDL (^125I-LDL) (McFarlane AS, In: Munro HN, Allison JB, eds. Mammalian Protein metabolism, Vol. 1. New York: Academic Press 297-341 (1964)) was modified by exposure to Cu++ in the presence and absence of 8,9-dehydroestrone. Next, J774 macrophages, which express scavenger lipoprotein receptors which bind oxidatively modified-LDL, were exposed to the treated ^125I-LDL. […] By comparison, the same concentrations of estrone reduced the binding of LDL that was oxidized by 39% and 0%, respectively. Since binding and metabolism of oxidized LDL by macrophages is though to contribute strongly to the development of foam cells and therefore, atherosclerotic plaque, this effect of reducing LDL oxidation and subsequent binding to scavenger receptors is thought to be of significant benefit.

Series [2] relates to low density lipoprotein (LDL). Kind of series: Inhibition of Cu++ mediated LDL oxidation (TBARS method).
Series [3] deals with porcine aortic endothelial cells (PAEC). Description: MTT cytotoxicity assay of porcine aortic endothelial cells exposed to Cu++-treated LDL. Type of series: cell-based. Conditions: 25 ug/ml LDL Cu++ treated in presence of compound (2.5µM stated for 8,9-dehydroestrone), 24 hr incubation, 2% viable without compound. Here is the method: In the second test procedure, porcine aortic endothelial cells (PAEC) were exposed to LDL that had been modified as above, by exposure to Cu++ in the presence and absence of 8,9-dehydroestrone. […] Subsequent to a 24 hr incubation of the cells with the treated LDL, an MTT assay was performed to assess cytotoxicity (Hansen MB, J Immu Methods 119:203-210 (1989)). This test procedure assesses the percent of cells that are viable (live) in a given assay. In the assay, following exposure to 25 ug/ml LDL oxidized in the absence of compound, only 2% of the cells remained viable. In contrast, the percent live cells following exposure to LDL Cu++ treated in the presence of 8,9-dehydroestrone (2.5µM) was 100% or greater.

Where [4] appears, read: J774, read-out: reduction of binding of the LDL that was oxidized.

Take `C[C@]12CC[C@@H]3c4ccc(O)cc4CC[C@H]3[C@@H]1CCC2=O` [estrone]: the inhibition at 0.25 µM in series [1] (0.25 µM compound present during Cu++ oxidation of 125I-LDL, J774 macrophages, read-out: reduction of binding of the LDL that was oxidized) came to 0%. Further, the inhibition at 2.5 µM in series [1] (2.5 µM compound present during Cu++ oxidation of 125I-LDL, J774 macrophages, read-out: reduction of binding of the LDL that was oxidized) is 39%.

`C[C@]12CCC3=C(CCc4cc(O)ccc43)[C@@H]1CCC2=O` [8,9-dehydroestrone]: in series [1] (setting [4]), the inhibition at 0.25 µM was found to be 56% and the inhibition at 2.5 µM was found to be 72%. In addition, the IC50 (commonly the midpoint of a concentration-inhibition curve) in series [2] (Cu++ mediated LDL oxidation, TBARS) turned out to be 220 nM. Further, the “inhibition of LDL oxidation” value in series [2] (maximal inhibition, stated for the test procedure in general (Cu++ or endothelial cell induced)) is ≤ 100%. The percent live cells in series [3] was ≥ 100%.

For `C[C@]12CC[C@H]3C(=CCc4cc(O)ccc43)[C@@H]1CCC2=O` [Equilin, reference compound], in series [3], the percent live cells was 4%.
